Assay results published in PubChem BioAssay (NCI).
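Interpolation was linear, between the two tested concentrations surrounding the appropriate level; five concentrations were tested over 48 hours in 96-well plates. TGI denotes the concentration required for complete inhibition of growth.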

Columns and labels:
Assay in all cases: NCI anticancer screen, dose series, 48 h
HCT-116 colon = system: HCT-116 colon
ACHN renal = system: ACHN renal
A549 NSCLC = system: A549 NSCLC
NCI-H522 lung = system: NCI-H522 lung
RXF 393 renal = system: RXF 393 renal
HT29 colon = system: HT29 colon
IGROV1 ovarian = system: IGROV1 ovarian
SK-MEL-28 melanoma = system: SK-MEL-28 melanoma
EKVX NSCLC = system: EKVX NSCLC
CCRF-CEM leukemia = system: CCRF-CEM leukemia
UO-31 renal = system: UO-31 renal
786-0 renal = system: 786-0 renal
SK-MEL-5 melanoma = system: SK-MEL-5 melanoma
HCT-15 colon = system: HCT-15 colon
KM12 colon = system: KM12 colon
SNB-19 CNS = system: SNB-19 CNS
MCF7 breast = system: MCF7 breast
BT-549 breast = system: BT-549 breast
UACC-257 melanoma = system: UACC-257 melanoma
DU-145 prostate = system: DU-145 prostate

SMILES | TGI (HCT-116 colon) [µM] | TGI (ACHN renal) [µM] | TGI (A549 NSCLC) [µM] | TGI (NCI-H522 lung) [µM] | TGI (RXF 393 renal) [µM] | TGI (HT29 colon) [µM] | TGI (IGROV1 ovarian) [µM] | TGI (SK-MEL-28 melanoma) [µM] | TGI (EKVX NSCLC) [µM] | TGI (CCRF-CEM leukemia) [µM] | TGI (UO-31 renal) [µM] | TGI (786-0 renal) [µM] | TGI (SK-MEL-5 melanoma) [µM] | TGI (HCT-15 colon) [µM] | TGI (KM12 colon) [µM] | TGI (SNB-19 CNS) [µM] | TGI (MCF7 breast) [µM] | TGI (BT-549 breast) [µM] | TGI (UACC-257 melanoma) [µM] | TGI (DU-145 prostate) [µM]
O=C1CCC(=O)N1Cc1ccccc1N=[N+]([O-])c1ccccc1CN1C(=O)CCC1=O | > 100 | > 100 | > 100 | > 100 | > 100 | > 100 | > 100 | > 100 | > 100 | > 100 | > 100 | > 100 | > 100 | > 100 | > 100 | > 100 | – | – | – | –
O=C1C(N2CCNCC2)=C(Cl)C(=O)c2ncccc21 | 4.36 | > 10 | > 10 | – | > 10 | > 10 | > 10 | > 10 | > 10 | > 10 | – | > 10 | > 10 | > 10 | > 10 | > 10 | > 10 | > 10 | > 10 | > 10
COC(=O)C1(c2cc3ccccc3n2S(=O)(=O)c2ccccc2)CC2C=CC1NC2 (configuration not stated) | 6.16 | 3.82 | 10.9 | – | 3.5 | 4.44 | 3.22 | 8.49 | 15.1 | – | 2.86 | 2.9 | 16.7 | 3.93 | 8.29 | 5.98 | 3.06 | 6.48 | 4.93 | 6.62
C=C(C)C1Cc2c(cc(O)c3c(=O)c4c(oc23)C(O)Oc2cc(OC)c(OC)cc2-4)O1 (configuration not stated) | > 10 | > 10 | > 10 | – | > 10 | > 10 | > 10 | > 10 | > 10 | > 10 | > 10 | > 10 | – | > 10 | > 10 | > 10 | > 10 | > 10 | > 10 | > 10
CC(C)(C)C(=O)C(C(=O)C(C)(C)C)C(=O)C(C)(C)C | > 100 | > 100 | > 100 | > 100 | > 100 | > 100 | > 100 | > 100 | > 100 | > 100 | > 100 | > 100 | > 100 | > 100 | > 100 | > 100 | > 100 | – | > 100 | > 100
CC(=O)OCC1OC(n2c(-c3ccccc3)c(C(C)=O)c(-c3ccc(Cl)cc3)c(C#N)c2=S)C(OC(C)=O)C(OC(C)=O)C1OC(C)=O (configuration not stated) | > 100 | > 100 | > 100 | > 100 | > 100 | > 100 | > 100 | > 100 | > 100 | > 100 | – | > 100 | > 100 | > 100 | > 100 | > 100 | > 100 | – | > 100 | > 100
